Converted amounts (≈) assume the structure as drawn. Where two headings read alike, the source gives them in different places. *1 amine or outer side, *2 acyl side, *3 side chain or, on linkers, in order; H or OH if unused. Where a SMILES comes first, the peptide text is derived from it. [ ]: non-standard residue; d: D form. dAla(ψthiazole) = C[C@@H](N[*:1])c1nc(C(=O)[*:2])cs1; Trp(4-Br) = N[C@@H](Cc1c[nH]c2cccc(Br)c12)C(=O)O; Dhb = C/C=C(\N)C(=O)O; Sar = CNCC(=O)O
Tests used:
[1] = test system: Bacteroides fragilis ATCC 25285; details: Bacteroides fragilis, ATCC25285
[2] = test system: Clostridium perfringens NCTC 8237
[3] = mice
Procedure: In this study, a single oral dose of compound 3 in 0.5% w/v aqueous methylcellulose at 5 mg/kg was administered to nine mice in a 10 mL/kg dosing volume and housed in metabolism cages. Following administration of the compound, serial blood samples of 50 μL was taken from the lateral tail vein at each of 7 post-dosing time-points (0.25, 0.5, 1, 2, 4, 7 and 24 h). Whole blood samples were then diluted 1:1 with water and two 40 μL aliquots were pipetted into duplicate 96 well plate tubes. At the end of 24 h, all faecal samples were collected and pooled. A quantitative bioanalysis by LC-MS/MS of the blood and faecal levels of compound 3 was carried out to determine the oral absorbability and gastrointestinal metabolic stability of compound 3.
To evaluate the metabolic stability of orally administered compound 3, metabolite profiling of the faecal sample was performed.

[4] = test system: Enterobacter cloacae NCTC 13406
[5] = test system: Escherichia coli ATCC 25922
[6] = test system: Actinomyces viscosus DSM 43327
[7] = test system: Citrobacter koseri Clinical
[8] = test system: Clostridium ramosum DSM 1402
[9] = test system: Pseudomonas aeruginosa ATCC 27853
[10] = test system: Corynebacterium striatium NCTC 764
[11] = test system: Bifidobacterium breve ATCC 15700
[12] = test system: Enterococcus faecium NCTC 12204
[13] = test system: Clostridium difficile ATCC 43255; experiment: CLSI MIC, representative gut bacteria; assay type: cell-based
Procedure: (§1) Comparative in vitro bacterial susceptibility to compounds 3, 9 and 10, vancomycin and metronidazole was determined using methods according to the Clinical and Laboratory Standard Institute (CLSI) approved guidelines (M7-A10, M11-A7 or M45-A2) for anaerobic and aerobic organisms.

[14] = test system: Clostridium sordellii ATCC 9714; experiment: CLSI MIC, representative gut bacteria; assay type: cell-based
Procedure: as §1

[15] = test system: Staphylococcus aureus ATCC 29213
[16] = test system: Proteus mirabilis DSM 30116
[17] = test system: Pseudomonas aeruginosa NCTC 13437
[18] = test system: 23 representatives of normal gut flora; experiment: CLSI MIC, whole panel of representative gut bacteria; assay type: cell-based; details: at 64 μg/mL
[19] = test system: Corynebacterium urealyticum NCTC 12011
[20] = test system: Enterococcus faecalis ATCC 29212
[21] = test system: Lactobacillus rhamnosus ATCC 53103
[22] = test system: Clostridium innocuum DSM 1286
Clostridium scindens = experiment: Growth of Clostridium scindens (separate study); assay type: cell-based; details: at 80.0 μg/mL
Source text: It is known that the presence of Clostridium scindens in the gut can help to keep Clostridium difficile at bay. […] This would not be the case if a broad-spectrum antibiotic, such as vancomycin or metronidazole, was to be used. The lack of activity against Clostridium scindens would, therefore, further help the gut to recover from Clostridium difficile infection.

[23] = test system: C. difficile ATCC 43255 (aka VPI 10463; ribotype 087); experiment: Mouse model of C. difficile-associated disease; assay type: in vivo, C57BL/6 mice
[24] = test system: Propionibacterium acnes ATCC 6919
[25] = test system: Clostridium difficile strains (21 clinical, 7 reference)

C/C=C1\NC(=O)[C@@H](C)NC(=O)CNC(=O)[C@H](Cc2c[nH]c3cccc(Br)c23)NC(=O)[C@H](Cc2c[nH]c3ccccc23)NC(=O)c2csc(n2)[C@@H](C)NC(=O)CN(C)C1=O [Compound 10, Cyclo[D-Ala-Thz-Trp-Trp(4-Br)-Gly-D-Ala-Dhb-Sar]] (cyclo([Dhb][Sar][dAla(ψthiazole)]W[Trp(4-Br)]G[dA]))
MIC [1]: > 64 µg/mL | activity against P. aeruginosa in comparison to the Dha containing compound 3 (P. aeruginosa PAO1; PAO1): three-fold increase in activity | IC50 (P. aeruginosa PAO1; PAO1, 13 h): 3700 ± 1000 nM | % Growth inhibition at 100 μM (P. aeruginosa PAO1; PAO1, 13 h, 100): 90.6 ± 1.3% | times more potent than Argyrin A (P. aeruginosa PAO1; against P. aeruginosa): 4 to 5 | MIC [2]: 64 µg/mL (≈ 72.1 µM) | compound recovered from pooled faeces ([3]; oral 5 mg/kg, 24 h): up to 90% | faecal concentration, times above the MIC against C. difficile ([3]; single 5 mg/kg oral dose): more than 200 | IC50 (B. multivorans ATCC17616; ATCC17616, 25 h): 840 ± 100 nM | times more potent than Argyrin A (B. multivorans ATCC17616; against B. multivorans): 4 to 5 | MIC [4]: >64 µg/mL | MIC [5]: >64 µg/mL | MIC [6]: 8 µg/mL (≈ 9.01 µM) | MIC [7]: >64 µg/mL | MIC [8]: >64 µg/mL | MIC [9]: >64 µg/mL | MIC [10]: >64 µg/mL | MIC [11]: >64 µg/mL | MIC [12]: >64 µg/mL | fold more potent against C. difficile ATCC 43255 compared to Bacteroides fragilis [13]: at least 256 fold | MIC ([13]; Clostridium difficile ATCC 43255): 0.25 µg/mL (≈ 0.282 µM) | MIC [14]: 1.0 µg/mL (≈ 1.13 µM) | MIC [15]: >64 µg/mL | MIC [16]: >64 µg/mL | MIC [17]: >64 µg/mL | share of the 23 representatives of normal gut flora that are insensitive [18]: Approximately 90% | MIC [19]: >64 µg/mL | MIC [20]: >64 µg/mL | MIC [21]: >64 µg/mL | MIC [22]: >64 µg/mL | growth of Clostridium scindens (Clostridium scindens): unaffected | survival to the end of the study at day-21 post-infection ([23]; 1 mg/kg): 80% | Mean survival ([23]; 1 mg/kg oral BD for 5 days): 504.00 h | survival to the end of the study at day-21 post-infection ([23]; 2.5 mg/kg): 70% | Mean survival ([23]; 2.5 mg/kg oral BD for 5 days): 504.00 h | reduction in C. difficile spore burden in the caecum vs vehicle controls ([23]; 5 mg/kg): 1.73 Log10 spore/mL | reduction in C. difficile spore burden in the colon vs vehicle controls ([23]; 5 mg/kg): 1.11 Log10 spore/mL | survival to the end of the study at day-21 post-infection ([23]; 5 mg/kg): 90% | Mean survival ([23]; 5 mg/kg oral BD for 5 days): 504.00 h | MIC [24]: >64 µg/mL | MIC40 ([25]; 28 C. difficile strains): 0.25 µg/mL (≈ 0.282 µM) | MIC50 ([25]; 28 C. difficile strains): 0.50 µg/mL (≈ 0.563 µM) | MIC90 ([25]; 28 C. difficile strains): 0.50 µg/mL (≈ 0.563 µM) | MIC ([25]; C. difficile strain 630 (ribotype 012)): 0.25 µg/mL (≈ 0.282 µM) | MIC ([25]; C. difficile strain ATCC 9689 (ribotype 001)): 0.5 µg/mL (≈ 0.563 µM) | MIC ([25]; C. difficile strain ATCC 13366): 1 µg/mL (≈ 1.13 µM) | MIC ([25]; C. difficile strain ATCC 43255): 0.25 µg/mL (≈ 0.282 µM) | MIC ([25]; C. difficile strain ATCC 700057 (ribotype 038)): 0.25 µg/mL (≈ 0.282 µM) | MIC ([25]; C. difficile strain ATCC BAA 1875 (ribotype 078)): 0.5 µg/mL (≈ 0.563 µM) | MIC ([25]; C. difficile strain BI1-FDX^R): 0.25 µg/mL (≈ 0.282 µM) | MIC ([25]; C. difficile strain Clin. 1): 0.25 µg/mL (≈ 0.282 µM) | MIC ([25]; C. difficile strain Clin. 2): 0.5 µg/mL (≈ 0.563 µM) | MIC ([25]; C. difficile strain Clin. 3): 0.25 µg/mL (≈ 0.282 µM) | MIC ([25]; C. difficile strain Clin. 5): 0.5 µg/mL (≈ 0.563 µM) | MIC ([25]; C. difficile strain Clin. 6): 0.5 µg/mL (≈ 0.563 µM) | MIC ([25]; C. difficile strain Clin. 7): 0.25 µg/mL (≈ 0.282 µM) | MIC ([25]; C. difficile strain Clin. 8): 0.5 µg/mL (≈ 0.563 µM) | MIC ([25]; C. difficile strain Clin. 9): 0.5 µg/mL (≈ 0.563 µM) | MIC ([25]; C. difficile strain Clin. 10): 0.25 µg/mL (≈ 0.282 µM) | MIC ([25]; C. difficile strain Clin. 11): 0.5 µg/mL (≈ 0.563 µM) | MIC ([25]; C. difficile strain Clin. 12): 0.25 µg/mL (≈ 0.282 µM) | MIC ([25]; C. difficile strain Clin. 13): 0.5 µg/mL (≈ 0.563 µM) | MIC ([25]; C. difficile strain Clin. 14): 0.5 µg/mL (≈ 0.563 µM) | MIC ([25]; C. difficile strain Clin. 15): 0.5 µg/mL (≈ 0.563 µM) | MIC ([25]; C. difficile strain Clin. 16): 0.25 µg/mL (≈ 0.282 µM) | MIC ([25]; C. difficile strain Clin. 18): 0.5 µg/mL (≈ 0.563 µM) | MIC ([25]; C. difficile strain Clin. 20): 0.25 µg/mL (≈ 0.282 µM) | MIC ([25]; C. difficile strain Clin. 21): 0.5 µg/mL (≈ 0.563 µM) | MIC ([25]; C. difficile strain Clin. 22): 0.5 µg/mL (≈ 0.563 µM) | MIC ([25]; C. difficile strain Clin. 23): 0.5 µg/mL (≈ 0.563 µM) | MIC ([25]; C. difficile strain Clin. 24): 0.25 µg/mL (≈ 0.282 µM) | share of the C. difficile strains tested that are susceptible ([25]; at 0.25 μg/mL): 43% | MIC against C. difficile ([25]; range over strains): 0.25 to 0.50 µg/mL

From patent US11192888B2, “Antibacterial compounds” (priority 2017, dated 2021)
